This assay can be described thus: Binding affinity towards 23-nt RNA oligonucleotide from the 5'-untranslated region of the cholestery ester transfer protein (CETP).

Structures are written as SMILES. Where a SMILES comes first, the peptide text is derived from it.

In general, Kd refers to a measure of binding affinity in units of concentration. `CC(C)C[C@H](NC(=O)[C@H](CCCCN)NC(=O)[C@H](Cc1ccc(O)cc1)NC(=O)[C@@H](N)CCCCN)C(=O)N[C@@H](Cc1ccc(O)cc1)C(=O)N[C@@H](CCCCN)C(=O)N[C@@H](CS)C(N)=O` (H-KYKLYKC-NH2) yielded a Kd of 32 µM.
